What is called cell viability is a per cent measure of how many cells are alive, often set against a control. Read a high cell viability as better survival. The half-life is how long it takes for the measured level to halve.

The values below come from publication PMC10917775, “Endogenous stimuli-responsive separating microneedles to inhibit hypertrophic scar through remodeling the pathological microenvironment” (Nature Communications, 2024).

Peptide text beside a SMILES is read from it. * marks the point of attachment. Acetyl(5-fluorouracil-1-yl) = O=C(Cn1cc(F)c(=O)[nH]c1=O)*; Methacryloyl = C=C(C)C(=O)*

The subject of data set [1] is NIH/3T3 fibroblasts. The data set is described as follows: CCK-8 cell viability / cytotoxicity assay. Format: cell-based. The note with it: for inhibitory effect on fibroblasts compared among 5-FuA, 5-FuA-Pep-MA and 5-FuA-Pro-Pro: all the concentrations (80, 125, 250 μM), 48 h, CCK-8, one-way ANOVA, n = 4.
Method: In vitro cell viability and cytotoxicity. The CCK-8 assays were used to detect the cytotoxicity of
5-Fu and 5-Fu derivatives towards NIH/3T3 fibroblasts. Briefly, NIH/3T3 fibroblasts were cultured
with DMEM medium (containing 10% FBS and 1% penicillin-streptomycin) at 37 °C with 5% CO2.
Then, NIH/3T3 fibroblasts were seeded in 96-well plates at a density of 5 × 10^3 cells/well and
cultured for 12 h to adhere to the bottom of the plates. Subsequently, the medium was replaced with
concentrations of 80, 125, 250 μM, respectively. The cells treated with the neat medium were taken
as the control group. After 48 h of incubation, the CCK-8 kit was added, and the absorption of each
well at 450 nm was measured with a microplate reader (Multiskan MK3, ThermoFisher Scientific,
USA) to calculate the cell viability.
For data set [2], the system named is NIH/3T3 fibroblasts. The data set is described as follows: In vitro wound scratch (migration) assay. The format is cell-based. The note with it: 80 μM drug with 0.5% FBS, after 48 h of incubation, Image J, n = 3, control almost complete closure within 48 h.
Method: In vitro wound scratch assay. Wound scratch assays were used to evaluate the migration of
NIH/3T3 fibroblasts were seeded into 24-well plates at a density of 2 × 10^4 cells/well for 8 h. Then,
the sterile pipette tips were used to draw the scratch in the center of the wells, and the cells scratched
off were washed away with PBS for 3 times. 500 μL of drug solutions consisting of 80 μM of 5-
Data set [3] is described as follows: ROS-responsive cleavage of prodrug by H2O2 (HPLC). As to conditions: PBS with 10, 50, 100 and 300 μM H2O2, 37 °C, 24-120 h, HPLC peak area, n = 3. Format: physicochemical. An excerpt: pathological microenvironment of HS tissues determined the drug release rate and […]
Indeed, the size, thickness and duration vary in patients with HS, which could affect the amount of drug needed. […]
fibroblasts/myofibroblasts and the more collagen fibers secreted. Therefore, we could adjust the frequency of treatment for different scar features (size, thickness and […]
3. Figure 3: The ROS response of 5-FuA-Pep-MA prodrug with different concentrations of H2O2 should be shown in both concentration and time.
We have revisited the relevant experiment.
Specifically, 5-FuA-Pep-MA prodrug was incubated with PBS containing different concentrations (10, 50, 100 and 300 μM) of H2O2 at 37 ℃, respectively . 50 μL solutio n was taken out at a pres et time (24, 48, 72, 96 and 120 h), which was analy zed by HPLC. […]
and concentration-dependent (Fig. 3g). […]
For the question3: As described in method:  The peak area obtained from the sample without H2O2 was recorded as A0, while the peak area obtained from the sample with H2O2 was recorded as Ac. The degradation rate was calculated by [(A0-Ac)/A0] À 100% to evaluate the ROS response of peptide prodrug […]
A direct observation of more 5-FU with more H2O2, by HPLC or other methods, either in-vitro or in-vivo, would be more convictive. For example, glucose responsive release of insulin was detected by insulin elisa kit, not the degradation of vesicles […]

In data set [4] the test system is human hypertrophic scar fibroblast (HSFb). The data set is described as follows: Intracellular ROS scavenging (ROS assay kit, DCFH-DA, CLSM). As to conditions: HSFb stimulated with ROSup, 5-FuA-Pep-MA 50, 100 and 200 μM, 12 h, with increased concentration. Format: cell-based. As for the experimental part:
The migration of cells was imaged with an inversion microscope at 0, 24 and 48 h. The area of the scratch was analyzed by Image J, and the wound healing rate (WHR) was calculated according to the following equation: WHR (%) = (A0 − At)/A0 × 100%, where A0 and At represented the area of scratch at 0 h and t h, respectively.
Intracellular ROS scavenging. ROS assay kit was used to observe the elimination of intracellular ROS by 5-FuA-Pep-MA. Specifically, HSFbs were seeded in 8-well confocal dishes at a density of 1 × 10^4 cells/well and cultured for 12 h to adhere to the bottom of the dishes. […]
Immunohistochemical, fluorescence and immunofluorescence staining of HS tissues. The ROS levels in HS tissues were measured by the fluorescence and immunofluorescence methods on day
43rd. […] The expression of MMP2 and MMP9 in HS tissues were measured by immunohistochemistry and immunofluorescence methods on day 43rd. […]
RNA sequencing and sample collection. […] RNA integrity was assessed using the RNA Nano 6000 Assay Kit of the Bioanalyzer 2100 system (Agilent Technologies, CA, USA). PCR products were purified (AMPure XP system) and library quality was assessed on the Agilent Bioanalyzer 2100 system. […]
Quality control. Firstly, raw data (raw reads) of fastq format were processed through in-house perl scripts. […]

On the set-up of data set [5]: method as in earlier work. As to conditions: in blood circulation; ref Oncol. Lett. 2018, 15, 7175; Cancer Res. 1978, 38, 3479; Cancer Biol. Ther., 2012, 13, 1407; Cancer Chemother. Pharmacol. 2013, 71, 351; Biomater. Sci. 2017, 5, 502; cited from earlier work. An excerpt: Response: Thanks for the questions. […] Corticosteroids could reduce inflammation response, promote vasoconstrictive effect, and inhibit fibroblast proliferation to treat HS.

In the next data set the test system is rabbit ear HS model. The experiment in a line: In vivo HS inhibition study, scar elevation index from H&E sections. The note with it: after the 3rd administration (once a week for 3 weeks), before treatment 3.5 in drug-loaded MNs group, untreated HS group 3.3, 5-Fu injection 120 μg per lesion, mean of n = 3. On the set-up: species or system rabbits (Oryctolagus cuniculus). The method, then: We investigated therapeutic effects of separating MNs on HS model in rabbit ears. Among the 15 rabbits, three rabbits were used as the control group (normal skin, NS), and the other 12 rabbits were used to establish HS model. The rabbit ear HS model was established according to a standard method, i.e., 4 HS lesions on each ear and 96 in total. Briefly, the rabbits were anesthetized with sodium pentobarbital (30 mg/kg) and operated under sterile conditions. Then, 4 round-shaped wounds of 7 mm diameter were created on the ventral surface of each ear, which were kept away from the central auricular artery and the periauricular vein. The epidermis, dermis, and perichondrium in each wound was removed thoroughly. After the procedures, the wounds were washed with 0.1% benzalkonium chloride solution to sterilize. In the following 2 weeks, after the rabbits were anesthetized, the newly formed wound tissues were removed to accelerate the formation of HS. […]
The three rabbits without treatment were taken as the control group (group 1, NS). […] The macroscopic images were recorded on the 21st day (before administration), the 29th day (1 week after the 1st administration), the 36th day (1 week after the 2nd administration), the 43rd day (1 week after the 3rd administration) and the 50th day (1 week follow-up). […]

On to `O=C(O)[C@@H]1CCCN1C(=O)[C@@H]1CCCN1C(=O)Cn1cc(F)c(=O)[nH]c1=O` [5-FuA-Pro-Pro], for which the “inhibitory effect on fibroblasts compared among 5-FuA, 5-FuA-Pep-MA and 5-FuA-Pro-Pro” value with NIH/3T3 fibroblasts [1] was “no significant difference”. This molecule also returned a wound healing rate with NIH/3T3 fibroblasts [2] of 53.2%.

On to `O=C(O)Cn1cc(F)c(=O)[nH]c1=O` [5-FuA, 5-Fuorouracil-1-acetic acid], for which the “inhibitory effect on fibroblasts compared among 5-FuA, 5-FuA-Pep-MA and 5-FuA-Pro-Pro” value in the data set with NIH/3T3 fibroblasts [1] was “no significant difference”. For the same molecule, the wound healing rate in the data set on NIH/3T3 fibroblasts [2] was found to be 48.3%.

With `C=C(C)C(=O)NCCCC[C@H](NC(=O)[C@@H]1CCCN1C(=O)[C@@H]1CCCN1C(=O)[C@@H]1CCCN1C(=O)Cn1cc(F)c(=O)[nH]c1=O)C(N)=O` [5-FuA-Pep-MA] ({Acetyl(5-fluorouracil-1-yl)}-PPPK(Methacryloyl)-NH2), the “inhibitory effect on fibroblasts compared among 5-FuA, 5-FuA-Pep-MA and 5-FuA-Pro-Pro” value in the data set with NIH/3T3 fibroblasts [1] is listed as “no significant difference”. In the data set on NIH/3T3 fibroblasts [2], this molecule returned a wound healing rate of 51.6%. The ROS-responsive cleavage rate entry in data set [3] is “positively correlated with H2O2 concentrations and incubation time”. Moreover, the “intracellular ROS fluorescence intensity” value in data set [4] was “significantly reduced”.

In the data set on NIH/3T3 fibroblasts [1] (250 μM, 48 h incubation, CCK-8, absorption at 450 nm, mean of n = 4), `O=c1[nH]cc(F)c(=O)[nH]1` [5-Fu, 5-Fluorouracil] yielded a cell viability of 46.9%. Moreover, the half-life in data set [5] is reported as 10 to 20 min. Moreover, in the data set with rabbit ear HS model, the “scar elevation index (SEI)” value stood at 2.2.
